From ChEMBL document CHEMBL1201862, “PubChem BioAssay data set” (2004)
Active and inactive are the calls of the source.

Assays:
[1] = Dd2 parasite growth inhibition in erythrocytes – SYBR Green, dry powder samples, set 9, dose response (AID 1159568); assay type: functional, cell-based
[2] = Late stage results for the probe development effort to identify inhibitors of Plasmodium falciparum gametocytes: Luminescence-based cell-based high throughput dose response assay to identify inhibitors of viability of late stage Plasmodium falciparum gametocytes.; assay type: functional
[3] = antifungal growth inhibition under osmotic support – sorbitol, alamar blue, dry powder, set 3, mechanism study for C. neoformans lysis project, dose response (AID 743304); assay type: functional, organism-based
[4] = loss of HEK293T viability via ATP – cell-based, plate reader, dry powder, set 10, cytotoxicity control, dose response (AID 743315); assay type: functional; conditions: HEK293
[5] = antimalarial activity against Dd2 parasites – SYBR Green fluorescence, erythrocytes, dry powder, set 2, dose response (AID 1159574); assay type: functional, cell-based
[6] = MITF Orthogonal Assay: MALME3 CTG Assay Measured in Cell-Based System Using Plate Reader - 2084-04_Inhibitor_Dose_DryPowder_Activity_Set6.; assay type: functional; conditions: MALME-3
[7] = MITF Orthogonal Assay: SK-MEL-5 CTG Assay Measured in Cell-Based System Using Plate Reader - 2084-02_Inhibitor_Dose_DryPowder_Activity_Set7.; assay type: functional
[8] = inhibitors of TRPM1-promoter reporter in SK-MEL-5 – cell-based, luciferase, dry powder, set 8, MITF inhibitor project, dose response (AID 624430); assay type: functional
[9] = melanocyte viability loss, MITF-dependent cells, cell-based, plate reader, dry powder, cytotoxicity control, dose response (AID 651920); assay type: functional
[10] = MITF: Counter assay: A375 proliferation Measured in Cell-Based System Using Plate Reader - 2084-03_Inhibitor_Dose_DryPowder_Activity_Set8.; assay type: functional; conditions: A-375
[11] = cytotoxicity in MITF-independent A375 cells – cell-based, CellTiter-Glo luminescence, dry powder, set 9, counter-screen for MITF modulator project, dose response (AID 651591); assay type: functional; conditions: A-375
[12] = growth inhibition of MALME3 cells – cell-based, CellTiter-Glo luminescence, dry powder, set 5, orthogonal assay for MITF inhibitor project, dose response (AID 651584); assay type: functional; conditions: MALME-3
[13] = inhibitors of TRPM1-promoter reporter in SK-MEL-5 – cell-based, luciferase, dry powder, set 9, MITF inhibitor project, dose response (AID 651588); assay type: functional
[14] = growth inhibition of SK-MEL-5 melanoma cells – cell-based, CellTiter-Glo luminescence, dry powder, set 8, orthogonal assay for MITF inhibitor project, dose response (AID 651586); assay type: functional
[15] = SNU-C1 cell viability reduction, dose response, CellTiter-Glo luminescence (AID 1117323); assay type: functional, cell-based
[16] = RKO cell viability reduction, dose response, CellTiter-Glo luminescence (AID 1117322); assay type: functional
[17] = cytotoxicity toward HT-29 cells – cell-based, CellTiter-Glo luminescence, IC50, dose response (AID 1117330); assay type: functional
[18] = cytotoxicity toward HCT116 cells – cell-based, CellTiter-Glo luminescence, IC50, dose response (AID 1117332); assay type: functional; conditions: HCT-116
[19] = CellTiter-Glo luminescence survival assay, SW480 colon tumor line, concentration-response curve, half-maximal inhibitory concentration (AID 1117338); assay type: functional
[20] = Reduced DLD-1 viability, concentration-response, CellTiter-Glo luminescence (AID 1117352); assay type: functional

With CCCNC(=O)N1[C@H](C#N)[C@@H](c2ccccc2-c2cccc(C)c2)[C@@H]1CO the AC50 [1] was 10.2 µM (active).

For O=C(Nc1nncs1)c1cc(-c2ccccc2)nn1-c1ccccc1, the IC50 [2] was > 37.2 µM (inactive).

In the case of CSc1nc2ccccc2n1CCOc1cc(C)ccc1C(C)C, the AC50 [3] is reported as 41.6 µM (active) and the AC50 [4] is reported as > 52 µM (inactive).

With COc1ccc(NC(=O)N2CCCCN3[C@H](CO)[C@@H](c4ccc(C#Cc5ccccc5)cc4)[C@H]3C2)cc1 the AC50 [5] was 4.04 µM (active).

With COc1ccc(NC2=C(N3CCCCC3)C(=O)c3ccccc3C2=O)cc1 the AC50 [6] was 11.2 µM (active), the AC50 [7] was 3.73 µM (active) and the AC50 [8] was 2.48 µM (active). The AC50 [9] was 40.9 µM (active), the AC50 [10] was > 70 µM (inactive) and the AC50 [11] was 42.4 µM (active). The AC50 [12] was 11.2 µM (active), the AC50 [13] was 12 µM (active) and the AC50 [14] was 26.8 µM (active).

In the case of [N-]=[N+]=CC(=O)OC[C@H](N)C(=O)O [AZASERINE], the IC50 [15] is reported as > 20 µM (inactive), the IC50 [16] is reported as > 20 µM (inactive) and the IC50 [17] is reported as > 20 µM (inactive). For the same compound, the IC50 [18] was > 20 µM (inactive), the IC50 [19] was > 20 µM (inactive) and the IC50 [20] was > 20 µM (inactive).
